Data as given in PubChem BioAssay (NCI).
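Five compound concentrations were applied to cells in 96-well plates for 48 hours; endpoints were derived by simple linear interpolation of the resulting dose-response curve. TGI: total growth inhibition.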

Columns and labels:
Experiment in all cases: NCI tumour cell line growth inhibition, 48 h
[1] = test system: HT29 colon
[2] = test system: EKVX NSCLC
[3] = test system: K-562 leukemia
[4] = test system: UO-31 renal
[5] = test system: DMS 114 small cell lung
[6] = test system: OVCAR-3 ovarian
[7] = test system: CAKI-1 renal
[8] = test system: KM12 colon
[9] = test system: UACC-257 melanoma
[10] = test system: SNB-19 CNS
[11] = test system: CCRF-CEM leukemia
[12] = test system: KM20L2 colon
[13] = test system: IGROV1 ovarian
[14] = test system: SK-OV-3 ovarian
[15] = test system: SW-620 colon
[16] = test system: M19-MEL melanoma
[17] = test system: SF-268 CNS
[18] = test system: A498 renal
[19] = test system: A549 NSCLC
[20] = test system: MALME-3M melanoma
[21] = test system: M14 melanoma
[22] = test system: HOP-62 NSCLC
[23] = test system: 786-0 renal
[24] = test system: SNB-75 CNS
[25] = test system: OVCAR-8 ovarian
[26] = test system: SNB-78 CNS
[27] = test system: MOLT-4 leukemia
[28] = test system: DLD-1 colon
[29] = test system: SN12C renal
[30] = test system: NCI-H23 lung
[31] = test system: RXF 393 renal
[32] = test system: DMS 273 small cell lung
[33] = test system: SF-539 CNS
[34] = test system: SF-295 CNS
[35] = test system: ACHN renal
[36] = test system: LXFL 529 NSCLC
[37] = test system: UACC-62 melanoma
[38] = test system: NCI-H460 lung
[39] = test system: XF 498 CNS
[40] = test system: SK-MEL-5 melanoma
[41] = test system: OVCAR-5 ovarian
[42] = test system: RPMI-8226 leukemia
[43] = test system: COLO 205 colon
[44] = test system: U251 CNS
[45] = test system: NCI-H226 lung
[46] = test system: SK-MEL-28 melanoma
[47] = test system: HCT-15 colon
[48] = test system: SK-MEL-2 melanoma
[49] = test system: NCI-H522 lung
[50] = test system: TK-10 renal
[51] = test system: OVCAR-4 ovarian
[52] = test system: HCT-116 colon
[53] = test system: LOX IMVI melanoma
[54] = test system: SR leukemia
[55] = test system: HOP-92 NSCLC
[56] = test system: HCC-2998 colon

Compound: NC(N)=NS(=O)(=O)c1ccc(NC(=O)c2cccc3cc4ccccc4nc23)cc1
- TGI [1]: > 100 µM
- TGI [2]: > 100 µM
- TGI [3]: > 100 µM
- TGI [4]: > 100 µM
- TGI [5]: > 100 µM
- TGI [6]: > 100 µM
- TGI [7]: > 100 µM
- TGI [8]: > 100 µM
- TGI [9]: > 100 µM
- TGI [10]: 31.8 µM
- TGI [11]: > 100 µM
- TGI [12]: > 100 µM
- TGI [13]: > 100 µM
- TGI [14]: > 100 µM
- TGI [15]: > 100 µM
- TGI [16]: > 100 µM
- TGI [17]: > 100 µM
- TGI [18]: > 100 µM
- TGI [19]: > 100 µM
- TGI [20]: > 100 µM
- TGI [21]: > 100 µM
- TGI [22]: > 100 µM
- TGI [23]: > 100 µM
- TGI [24]: > 100 µM
- TGI [25]: > 100 µM
- TGI [26]: > 100 µM
- TGI [27]: > 100 µM
- TGI [28]: > 100 µM
- TGI [29]: > 100 µM
- TGI [30]: > 100 µM
- TGI [31]: > 100 µM
- TGI [32]: > 100 µM
- TGI [33]: > 100 µM
- TGI [34]: > 100 µM
- TGI [35]: > 100 µM
- TGI [36]: > 100 µM
- TGI [37]: > 100 µM
- TGI [38]: > 100 µM
- TGI [39]: > 100 µM
- TGI [40]: > 100 µM
- TGI [41]: > 100 µM
- TGI [42]: > 100 µM
- TGI [43]: > 100 µM
- TGI [44]: > 100 µM
- TGI [45]: > 100 µM
- TGI [46]: > 100 µM
- TGI [47]: > 100 µM
- TGI [48]: > 100 µM
- TGI [49]: > 100 µM
- TGI [50]: > 100 µM
- TGI [51]: 85.7 µM
- TGI [52]: > 100 µM
- TGI [53]: > 100 µM

Compound: O=C1c2ccccc2C(=O)c2c1ccc(O)c2O
- TGI [54]: > 100 µM
- TGI [1]: > 100 µM
- TGI [2]: > 100 µM
- TGI [3]: > 100 µM
- TGI [4]: > 100 µM
- TGI [6]: > 100 µM
- TGI [7]: > 100 µM
- TGI [8]: > 100 µM
- TGI [9]: > 100 µM
- TGI [10]: > 100 µM
- TGI [11]: > 100 µM
- TGI [13]: > 100 µM
- TGI [15]: > 100 µM
- TGI [16]: > 100 µM
- TGI [17]: > 100 µM
- TGI [18]: > 100 µM
- TGI [21]: > 100 µM
- TGI [55]: > 100 µM
- TGI [22]: > 100 µM
- TGI [23]: > 100 µM
- TGI [24]: 69.2 µM
- TGI [25]: > 100 µM
- TGI [27]: > 100 µM
- TGI [28]: > 100 µM
- TGI [29]: > 100 µM
- TGI [30]: > 100 µM
- TGI [31]: 88.7 µM
- TGI [32]: > 100 µM
- TGI [33]: > 100 µM
- TGI [34]: > 100 µM
- TGI [35]: > 100 µM
- TGI [36]: > 100 µM
- TGI [37]: 55.3 µM
- TGI [38]: > 100 µM
- TGI [39]: > 100 µM
- TGI [41]: > 100 µM
- TGI [42]: > 100 µM
- TGI [43]: > 100 µM
- TGI [44]: > 100 µM
- TGI [45]: > 100 µM
- TGI [46]: > 100 µM
- TGI [47]: > 100 µM
- TGI [48]: > 100 µM
- TGI [49]: > 100 µM
- TGI [50]: > 100 µM
- TGI [51]: > 100 µM
- TGI [56]: > 100 µM
- TGI [52]: > 100 µM
- TGI [53]: > 100 µM
